ChEMBL document CHEMBL5113490, “Discovery of CN0 as a novel proteolysis-targeting chimera (PROTAC) degrader of PARP1 that can activate the cGAS/STING immunity pathway combined with daunorubicin” (Bioorg Med Chem, 2022)
Calls of active or inactive are those of the source. The rule behind the calls is not given here.

Tests used:
4T1 [1] = assay: Growth inhibition of mouse 4T1 cells at 0.5 uM; type: functional; settings: read-out: GI
MDA-MB-231 [2] = assay: Growth inhibition of human MDA-MB-231 cells at 0.25 uM; type: functional; settings: read-out: GI
MDA-MB-231 [3] = assay: Growth inhibition of human MDA-MB-231 cells at 1 uM; type: functional; settings: read-out: GI
[4] = Cytotoxicity against human MCF-10A cells assessed as growth inhibition at 0.25 uM; type: toxicity, cell-based; settings: read-out: GI
4T1 [5] = assay: Growth inhibition of mouse 4T1 cells at 1 uM; type: functional; settings: read-out: GI
4T1 [6] = assay: Growth inhibition of mouse 4T1 cells at 0.25 uM; type: functional; settings: read-out: GI
MDA-MB-231 [7] = assay: Growth inhibition of human MDA-MB-231 cells at 4 uM; type: functional; settings: read-out: GI
[8] = Cytotoxicity against human MCF-10A cells assessed as growth inhibition at 0.5 uM; type: toxicity, cell-based; settings: read-out: GI
MDA-MB-231 [9] = assay: Activation of cGAS/STING pathway in human MDA-MB-231 cells assessed as upregulation of cGAS mRNA expression at 10 uM in presence of 0.5 uM daunorubicin measured after 24 hrs; type: cell-based; settings: filed as activator
[10] = MRT in rat at 8 mg/kg, iv; type: ADME, organism-based; settings: in vivo
[11] = Cmax in rat at 8 mg/kg, iv; type: ADME, organism-based; set-up: dose 8 mg/kg, route iv; settings: in vivo
MDA-MB-231 [12] = assay: Growth inhibition of human MDA-MB-231 cells assessed as combination index at 10 uM in presence of 1 uM daunorubicin; type: functional
[13] = biological target: T1, Protein cereblon/Poly [ADP-ribose] polymerase 1 (Homo sapiens, UniProt P09874+Q96SW2); assay: Protac activity at CRBN/PARP1 in human MDA-MB-231 cells assessed as PARP1 degradation at 10 uM measured after 4 to 48 hrs; type: cell-based; settings: time 4-48 hrs
Target sequence in this assay (P09874 2-1014 limits assumed): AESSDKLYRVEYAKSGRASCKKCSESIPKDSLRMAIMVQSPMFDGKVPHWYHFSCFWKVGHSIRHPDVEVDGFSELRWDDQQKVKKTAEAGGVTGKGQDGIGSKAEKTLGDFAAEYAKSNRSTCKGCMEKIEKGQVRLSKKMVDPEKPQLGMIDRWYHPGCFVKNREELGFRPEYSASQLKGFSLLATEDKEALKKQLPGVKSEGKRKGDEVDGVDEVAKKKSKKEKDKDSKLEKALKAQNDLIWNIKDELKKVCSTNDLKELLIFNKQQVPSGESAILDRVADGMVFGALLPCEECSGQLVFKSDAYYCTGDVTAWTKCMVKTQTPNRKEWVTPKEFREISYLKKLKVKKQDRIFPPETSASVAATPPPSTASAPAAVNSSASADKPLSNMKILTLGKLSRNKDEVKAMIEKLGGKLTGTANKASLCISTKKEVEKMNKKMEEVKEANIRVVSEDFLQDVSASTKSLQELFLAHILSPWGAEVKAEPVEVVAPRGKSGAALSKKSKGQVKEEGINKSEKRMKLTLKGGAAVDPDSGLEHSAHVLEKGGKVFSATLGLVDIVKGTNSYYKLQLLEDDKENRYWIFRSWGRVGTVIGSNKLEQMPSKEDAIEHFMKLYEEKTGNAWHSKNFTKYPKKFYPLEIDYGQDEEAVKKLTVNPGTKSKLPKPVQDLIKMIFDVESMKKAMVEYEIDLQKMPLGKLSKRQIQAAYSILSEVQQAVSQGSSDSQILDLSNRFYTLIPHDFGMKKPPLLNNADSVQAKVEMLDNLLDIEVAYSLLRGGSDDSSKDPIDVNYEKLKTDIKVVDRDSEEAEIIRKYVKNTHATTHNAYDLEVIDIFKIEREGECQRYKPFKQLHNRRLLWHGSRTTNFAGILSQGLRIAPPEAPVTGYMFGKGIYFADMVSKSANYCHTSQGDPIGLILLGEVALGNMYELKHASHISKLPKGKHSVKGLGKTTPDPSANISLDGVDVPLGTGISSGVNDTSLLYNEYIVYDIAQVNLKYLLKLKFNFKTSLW
Target sequence in this assay (Q96SW2 whole entry partner): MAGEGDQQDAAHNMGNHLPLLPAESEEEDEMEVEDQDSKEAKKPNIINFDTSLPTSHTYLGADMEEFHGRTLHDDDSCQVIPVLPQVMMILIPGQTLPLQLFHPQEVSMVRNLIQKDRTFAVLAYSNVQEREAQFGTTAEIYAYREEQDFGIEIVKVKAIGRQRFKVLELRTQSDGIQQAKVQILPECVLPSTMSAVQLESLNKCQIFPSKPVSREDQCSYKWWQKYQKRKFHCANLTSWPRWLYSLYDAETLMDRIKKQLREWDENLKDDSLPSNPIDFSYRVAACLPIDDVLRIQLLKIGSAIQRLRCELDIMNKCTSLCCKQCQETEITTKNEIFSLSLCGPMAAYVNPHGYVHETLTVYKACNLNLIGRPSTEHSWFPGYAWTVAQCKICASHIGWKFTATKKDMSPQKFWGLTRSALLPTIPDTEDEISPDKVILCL

4T1 [14] = assay: In vivo protac activity at CRBN/PARP1 in mouse 4T1 cells xenografted in mouse assessed as PARP1 degradation at 25 mg/kg, ip administered once a day; type: functional, organism-based
[15] = Toxicity in immunocompetent mouse allografted with mouse 4T1 cells assessed as effect on body weight at 25 mg/kg, ip administered once a day in presence of daunorubicin at 0.5 mg/kg, ip administered once a day; type: organism-based; settings: in vivo
4T1 [16] = assay: Growth inhibition of mouse 4T1 cells at 10 uM in presence of 0.25 uM daunorubicin; type: functional; settings: read-out: GI
MDA-MB-231 [17] = assay: Activation of cGAS/STING pathway in human MDA-MB-231 cells assessed as upregulation of CXCL9 mRNA expression at 10 uM in presence of 0.5 uM daunorubicin measured after 24 hrs; type: cell-based; settings: filed as activator
[18] = biological target: T1, Protein cereblon/Poly [ADP-ribose] polymerase 1; assay: Protac activity at CRBN/PARP1 in human MDA-MB-231 cells assessed as PARP1 degradation at 10 uM measured after 3 hrs in presence of 10 uM Z-VAD-FMK; type: cell-based
Target sequence in this assay (P09874 2-1014 limits assumed): as the sequence (P09874 2-1014 limits assumed) above
Target sequence in this assay (Q96SW2 whole entry partner): as the sequence (Q96SW2 whole entry partner) above

[19] = Cytotoxicity against human MCF-10A cells assessed as growth inhibition at 10 uM in presence of 0.25 uM daunorubicin; type: toxicity, cell-based; settings: read-out: GI
4T1 [20] = assay: Antitumor activity against mouse 4T1 cells allografted in immunocompetent mouse assessed as reduction in tumor volume at 25 mg/kg, ip administered once a day in presence of daunorubicin at 0.5 mg/kg, ip administered once a day; type: functional, organism-based
MDA-MB-231 [21] = assay: Growth inhibition of human MDA-MB-231 cells at 10 uM in presence of 0.25 uM daunorubicin; type: functional; settings: read-out: GI
[22] = biological target: Protein cereblon (Homo sapiens) (UniProt Q96SW2); assay: Binding affinity to CRBN in human MDA-MB-231 cells measured by thermal shift assay; type: cell-based
Protein cereblon (Homo sapiens), sequence (Q96SW2 whole entry): as the sequence (Q96SW2 whole entry partner) above

4T1 [23] = assay: Growth inhibition of mouse 4T1 cells assessed as combination index at 10 uM in presence of 0.25 uM daunorubicin; type: functional
[24] = AUC (0 to t) in rat at 8 mg/kg, iv; type: ADME, organism-based; set-up: dose 8 mg/kg, route iv; settings: in vivo
MDA-MB-231 [25] = assay: Inhibition of DNA repair in human MDA-MB-231 cells assessed as induction of gamma-H2AX level at 10 uM in presence of 0.5 uM daunorubicin measured after 2 hrs by western blot analysis; type: functional, cell-based
MDA-MB-231 [26] = assay: Activation of cGAS/STING pathway in human MDA-MB-231 cells assessed as upregulation of CXCL10 mRNA expression at 10 uM in presence of 0.5 uM daunorubicin measured after 24 hrs; type: cell-based; settings: filed as activator
4T1 [27] = assay: Growth inhibition of mouse 4T1 cells at 10 uM in presence of 1 uM daunorubicin; type: functional; settings: read-out: GI
MDA-MB-231 [28] = assay: Growth inhibition of human MDA-MB-231 cells assessed as combination index at 10 uM in presence of 4 uM daunorubicin; type: functional
MDA-MB-231 [29] = assay: Growth inhibition of human MDA-MB-231 cells assessed as combination index at 10 uM in presence of 0.25 uM daunorubicin; type: functional
MDA-MB-231 [30] = assay: Activation of cGAS/STING pathway in human MDA-MB-231 cells assessed as increase in TBK1 phosphorylation at S172 residue at 10 uM in presence of 0.5 uM daunorubicin measured after 24 hrs; type: cell-based; settings: filed as activator
MDA-MB-231 [31] = assay: Growth inhibition of human MDA-MB-231 cells at 10 uM in presence of 4 uM daunorubicin; type: functional; settings: read-out: GI
MDA-MB-231 [32] = assay: Activation of cGAS/STING pathway in human MDA-MB-231 cells assessed as increase in IRF3 phosphorylation at S396 residue at 10 uM in presence of 0.5 uM daunorubicin measured after 24 hrs; type: cell-based; settings: filed as activator
MDA-MB-231 [33] = assay: Activation of cGAS/STING pathway in human MDA-MB-231 cells assessed as increase in STING phosphorylation at 10 uM in presence of 0.5 uM daunorubicin measured after 24 hrs; type: cell-based; settings: filed as activator
[34] = Half-life in rat at 8 mg/kg, iv; type: ADME, organism-based; settings: in vivo
[35] = biological target: T1, Protein cereblon/Poly [ADP-ribose] polymerase 1; assay: Protac activity at CRBN/PARP1 in human MDA-MB-231 cells assessed as PARP1 degradation measured after 24 hrs; type: cell-based
Target sequence in this assay (P09874 whole entry): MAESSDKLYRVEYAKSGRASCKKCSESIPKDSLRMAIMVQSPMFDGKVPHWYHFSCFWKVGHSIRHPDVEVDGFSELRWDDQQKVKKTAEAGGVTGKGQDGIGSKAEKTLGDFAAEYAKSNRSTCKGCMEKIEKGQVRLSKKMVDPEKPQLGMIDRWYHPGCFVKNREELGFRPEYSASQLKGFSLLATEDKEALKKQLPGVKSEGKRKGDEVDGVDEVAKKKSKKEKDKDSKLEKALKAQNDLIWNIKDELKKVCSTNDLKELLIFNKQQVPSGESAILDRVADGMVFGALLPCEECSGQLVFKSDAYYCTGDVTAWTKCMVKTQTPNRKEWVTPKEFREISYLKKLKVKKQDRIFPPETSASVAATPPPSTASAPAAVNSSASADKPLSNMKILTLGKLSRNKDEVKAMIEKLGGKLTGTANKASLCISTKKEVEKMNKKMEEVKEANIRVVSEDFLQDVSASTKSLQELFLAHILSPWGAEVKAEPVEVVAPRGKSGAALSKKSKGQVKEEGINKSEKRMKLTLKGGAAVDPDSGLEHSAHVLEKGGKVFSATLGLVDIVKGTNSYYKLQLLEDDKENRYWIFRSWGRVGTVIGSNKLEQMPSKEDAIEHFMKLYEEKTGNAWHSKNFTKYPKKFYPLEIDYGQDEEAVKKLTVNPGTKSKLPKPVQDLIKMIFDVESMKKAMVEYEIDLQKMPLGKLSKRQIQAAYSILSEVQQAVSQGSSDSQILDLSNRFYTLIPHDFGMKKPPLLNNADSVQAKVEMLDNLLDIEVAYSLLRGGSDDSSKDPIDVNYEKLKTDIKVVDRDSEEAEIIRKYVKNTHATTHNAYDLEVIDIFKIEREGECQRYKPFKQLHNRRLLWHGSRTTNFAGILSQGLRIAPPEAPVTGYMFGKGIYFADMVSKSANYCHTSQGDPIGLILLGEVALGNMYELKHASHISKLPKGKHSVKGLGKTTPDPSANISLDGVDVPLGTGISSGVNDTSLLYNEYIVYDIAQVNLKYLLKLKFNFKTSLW
Target sequence in this assay (Q96SW2 whole entry): as the sequence (Q96SW2 whole entry partner) above

MDA-MB-231 [36] = assay: Activation of cGAS/STING pathway in human MDA-MB-231 cells assessed as upregulation of CCL5 mRNA expression at 10 uM in presence of 0.5 uM daunorubicin measured after 24 hrs; type: cell-based; settings: filed as activator
MDA-MB-231 [37] = assay: Growth inhibition of human MDA-MB-231 cells at 10 uM; type: functional; settings: read-out: GI
MDA-MB-231 [38] = assay: Inhibition of DNA repair in human MDA-MB-231 cells assessed as induction of free cytosolic dsDNA at 5 uM in presence of 0.5 uM daunorubicin measured after 24 hrs by DAPI staining method; type: functional, cell-based
MDA-MB-231 [39] = assay: Activation of cGAS/STING pathway in human MDA-MB-231 cells assessed as upregulation of STING mRNA expression at 10 uM in presence of 0.5 uM daunorubicin measured after 24 hrs; type: cell-based; settings: filed as activator
[40] = Cytotoxicity against human MCF-10A cells assessed as growth inhibition at 10 uM in presence of 0.5 uM daunorubicin; type: toxicity, cell-based; settings: read-out: GI
MDA-MB-231 [41] = assay: Growth inhibition of human MDA-MB-231 cells at 10 uM in presence of 1 uM daunorubicin; type: functional; settings: read-out: GI
[42] = Cytotoxicity against human MCF-10A cells assessed as growth inhibition at 10 uM; type: toxicity, cell-based; settings: read-out: GI
4T1 [43] = assay: Growth inhibition of mouse 4T1 cells at 10 uM in presence of 0.5 uM daunorubicin; type: functional; settings: read-out: GI
4T1 [44] = assay: Antitumor activity against mouse 4T1 cells allografted in immunocompetent mouse assessed as increase in CD8-positive T cells at 25 mg/kg, ip administered once a day in presence of daunorubicin at 0.5 mg/kg, ip administered once a day; type: functional, organism-based
4T1 [45] = assay: Growth inhibition of mouse 4T1 cells assessed as combination index at 10 uM in presence of 0.5 uM daunorubicin; type: functional
MDA-MB-231 [46] = assay: Antiproliferative activity against human MDA-MB-231 cells assessed as increase in cell killing by T cells at 10 uM in presence of 0.5 uM daunorubicin measured after 24 hrs by flow cytometry analysis; type: functional, cell-based
MDA-MB-231 [47] = assay: Activation of cGAS/STING pathway in human MDA-MB-231 cells assessed as increase in P65 phosphorylation at 10 uM in presence of 0.5 uM daunorubicin measured after 24 hrs; type: cell-based; settings: filed as activator
4T1 [48] = assay: Growth inhibition of mouse 4T1 cells assessed as combination index at 10 uM in presence of 1 uM daunorubicin; type: functional
4T1 [49] = assay: Growth inhibition of mouse 4T1 cells at 10 uM; type: functional; settings: read-out: GI

## COc1cccc2c1C(=O)c1c(O)c3c(c(O)c1C2=O)C[C@@](O)(C(C)=O)C[C@@H]3O[C@H]1C[C@H](N)[C@H](O)[C@H](C)O1 [DAUNORUBICIN]
4T1 [1]
  inhibition of growth at 0.5 µM: 63.6%
MDA-MB-231 [2]
  inhibition of growth at 0.25 µM: 9.76%
MDA-MB-231 [3]
  inhibition of growth at 1 µM: 10.7%
[4]
  inhibition at 0.25 µM: 35%
4T1 [5]
  inhibition of growth at 1 µM: 69.8%
4T1 [6]
  inhibition of growth at 0.25 µM: 60%
MDA-MB-231 [7]
  inhibition of growth at 4 µM: 36.9%
[8]
  inhibition at 0.5 µM: 46.1%

## NC(=O)c1cccc2cn(-c3ccc(C4CCCN(c5cccc6c5C(=O)N(C5CCC(=O)NC5=O)C6=O)C4)cc3)nc12 (centres undefined)
MDA-MB-231 [9]
  Activity: Active
[10]
  MRT: 2.55 h
[11]
  Cmax: 5770 ng/mL
MDA-MB-231 [12]
  CI: 0.06
[13]
  Activity: Active
4T1 [14]
  Activity: Active
[15]
  Activity: Non-Toxic
4T1 [16]
  inhibition of growth at 10 µM: 65.5%
MDA-MB-231 [17]
  Activity: Active
[18]
  Activity: Active
[19]
  inhibition at 10 µM: 35%
4T1 [20]
  Activity: Active
MDA-MB-231 [21]
  inhibition of growth at 10 µM: 22.5%
[22]
  Activity: Active
4T1 [23]
  CI: 0.44
[24]
  AUC(0-t): 6960 ng·h/mL
MDA-MB-231 [25]
  inhibition: Active
MDA-MB-231 [26]
  Activity: Active
4T1 [27]
  inhibition of growth at 10 µM: 98.2%
MDA-MB-231 [28]
  CI: 0.12
MDA-MB-231 [29]
  CI: 0.21
MDA-MB-231 [30]
  Activity: Active
MDA-MB-231 [31]
  inhibition of growth at 10 µM: 59.8%
MDA-MB-231 [32]
  Activity: Active
MDA-MB-231 [33]
  Activity: Active
[34]
  half-life: 1.87 h
[35]
  DC50: 252 nM
MDA-MB-231 [36]
  Activity: Active
MDA-MB-231 [37]
  inhibition of growth at 10 µM: 4.55%
MDA-MB-231 [38]
  inhibition: Active
MDA-MB-231 [39]
  Activity: Active
[40]
  inhibition at 10 µM: 41.2%
MDA-MB-231 [41]
  inhibition of growth at 10 µM: 38.1%
[42]
  inhibition at 10 µM: 4.93%
4T1 [43]
  inhibition of growth at 10 µM: 70.1%
4T1 [44]
  Activity: Active
4T1 [45]
  CI: 0.45
MDA-MB-231 [46]
  Activity: Active
MDA-MB-231 [47]
  Activity: Active
4T1 [48]
  CI: 0.0001
4T1 [49]
  inhibition of growth at 10 µM: 2.71%
